“Also recorded” adds a separate entry of the source.
Tested on: ischemia/reperfusion induced kidney injury
Assay: rat model of ischemia/reperfusion induced kidney injury
Assay type: in vivo
Settings: Sprague Dawley rats after ischemic renal injury (45 min bilateral renal pedicle occlusion), veliparib 25 mg/kg BID PO
Excerpt: Acute kidney injury (AKI) is a clinical condition characterized by a rapid decline in kidney function and is often associated with high morbidity and mortality. The precise etiology of ischemia/reperfusion (I/R)-induced AKI is yet not fully understood and is thought to involve multiple factors. The prevention of acute kidney injury and its progression represents a great challenge particularly in renal transplanted patients. Therefore, animal models of renal ischemia/reperfusion (I/R) are important to understand pathophysiology and potential treatment strategies for AKI. The present study evaluated the efficacy of a test compound, namely veliparib (shown below),
[drawing 8] in a rat model of ischemia/reperfusion induced kidney injury.
Species: Rattus norvegicus
3. Experimental Plan • i. All animals were numbered and kept in acclimatization for a period of 5-7 days, with 2 days acclimatization on metabolic cages before, initiation of the experiment. • ii. Animals were randomized into different treatment groups based on their body weight and assigned a permanent number. • iii. Body weight measurements were made once at randomization, also daily just prior to compound dosing and prior to termination. All body weights were recorded. • iv. Treatment with test compound(s) varied based on dose group (see table) that follows different dosing paradigms. The time of each dose administration was recorded. • 1. The dosing schedule for groups 1 and 2 was as follows: a 5 mL/kg BID dose with vehicle starting Day −1 through Day 2 with the final dose on Day 3 occurring 2 hours prior to takedown. • 2. The dosing schedule for group 3 with veliparib was 25 mg/kg BID starting on Day −1. […] After 45 min, the clips were removed, reperfusion was monitored (change in kidney color) for 1-2 min and the surgical sites were sutured. […] Postsurgical care and recovery: Animals were monitored until recovery from anesthesia and returned to their metabolic cage. […] For the 6 hour collection, urine volume was measured and recorded (to the nearest 1.0 mL) and samples were clarified by centrifugation (3000 rpm for 10 minutes). […]

## C[C@]1(c2nc3c(C(N)=O)cccc3[nH]2)CCCN1 [veliparib]
FIG. 2A/2B
  induced increases in blood urea nitrogen (BUN): attenuates
  induced increases in plasma creatinine levels: attenuates
FIG. 3
  fractional excretion of sodium (a measurement of tubular injury): improves; also recorded: attenuates
